Structures can show the parent of a compound that is named as a salt.
Columns and labels:
Type in all cases: cell-based
[1] = test system: C. albicans; assay: in vitro microbicidal activity of dexpanthenol solutions in 0.25% Bis-Tris Propane buffer preserved with PHMB (Example 2); conditions: PHMB 0.5 ppm; for Log Reduction Calibicans 4 hour: C. albicans, room temperature, Bis-Tris Propane 0.25%, Cremophor 0.20%, Inositol 3.0%, Allantoin 0.1%, pH 7.2, dexpanthenol 0.1% or none
Protocol: (§1) Formulations containing dexpanthenol were prepared in a 0.25% Bis-Tris Propane buffer. The solutions were made isotonic with sodium chloride and preserved with polyhexamethylene biquanide at 0.00005%. The pH was adjusted to 7.2 with either 1 N sodium hydroxide or 1 N hydrochloric acid. The in vitro microbicidal activity of the solutions was determined by exposing C. albicans to 10 ml of each solution at room temperature for 4 hours. Subsequently, an aliquot of each solution was serial diluted onto agar plates and incubated for 48 hours at elevated temperatures. At the conclusion of the incubation period the plates are examined for the development of colonies. The log reduction was determined based on a comparison to the inoculum control. The following table provides the results of the in vitro studies.

[2] = test system: E. coli; assay: in vitro anti-microbial activity of vitamin B solutions in 0.5% Tris buffer with PHMB (Example 3); conditions: for Log Reduction at 1 hr: E. coli, room temperature, 0.5% Tris, 0.6% sodium chloride, pH 7.2, 1 ppm PHMB, vitamin B 0.5% or none; for effect on the preservative (PHMB): 0.5% vitamin B, 1 ppm PHMB, E. coli 1 hour
Protocol: (§2) Formulations containing Dexpanthanol (Spectrum), Pyridoxine HCl (Spectrum) Thiamine HCl (Spectrum), and no Vitamin B control were prepared in a 0.5% Tris buffer containing 0.6% sodium chloride. The pH was adjusted with 1 N HCl to a final pH of 7.2. Polyhexamethylene biquanide (PHMB) at 0.0001% was added to each formulation. The in vitro anti-microbial activity of the solutions was determined by exposing E. coli to 10 ml of each solution at room temperature for 1 hours. Subsequently, an aliquot of each solution was serial diluted onto agar plates and incubated for 48 hours at elevated temperatures. At the conclusion of the incubation period the plates are examined for the development of colonies. The log reduction was determined based on a comparison to the inoculum control.

[3] = test system: E. coli; assay: in vitro anti-microbial activity of vitamin B solutions in 0.5% Tris buffer with benzalkonium chloride (Example 4); conditions: for Log Reduction at 1 hr: E. coli, 0.5% Tris; for effect on the preservative (BAK): 0.5% vitamin B, 25 PPM BAK, E. coli 1 hour
Protocol: as §2, with “Polyhexamethylene biquanide (PHMB) at 0.0001% was added to each formulation.” left out, “hour.” for “hours.”, “control. The following table provides the results of the in vitro studies.” for “control.”

[4] = test system: C. albicans; assay: in vitro microbicidal activity of vitamin B solutions in 0.2% phosphate buffer preserved with PHMB (Example 1); conditions: PHMB 0.0001%; for activity against C. albicans as compared to the buffer control: 0.5% additive, 4 hours; for 4 Hour Log Reduction: C. albicans, room temperature, additive 0.5% in 0.2% phosphate buffer, isotonic, pH 7.2, vs inoculum control
Protocol: as §1, with “Pyridoxine HCl (Spectrum) and Thiamine HCl (Fisher)” for “dexpanthenol”, “0.2% phosphate” for “0.25% Bis-Tris Propane”, “biguanide” for “biquanide”, “0.0001%.” for “0.00005%.”, “control.” for “control. The following table provides the results of the in vitro studies.”

[5] = room temperature, 0.6% sodium chloride, pH 7.2, 25 PPM BAK, vitamin B 0.5%

| Compound | Log Reduction Calibicans 4 hour [1] | Log Reduction at 1 hr [2] | Log Reduction at 1 hr ([3]; no vitamin B, row printed with 1 ppm PHMB) | activity against C. albicans as compared to the buffer control [4] | 4 Hour Log Reduction [4] | effect on the preservative (PHMB) [2] | Log Reduction at 1 hr [3, 5] | preservative efficacy over a solution with a preservative alone ([1]; dexpanthenol 0.1%, C. albicans 4 hours) | effect on the preservative (BAK) [3] |
| --- | --- | --- | --- | --- | --- | --- | --- | --- | --- |
| polyhexamethylene biguanide [PHMB] | 3.8 | 0.42 | 0.42 |  |  |  |  |  |  |
| Cc1ncc(C[n+]2csc(CCO)c2C)c(N)n1 [Thiamine HCl] |  | 5.12 |  | improvement in the activity | 1.0 | enhancement of the preservative | 3.30 |  |  |
| CC(C)(CO)[C@@H](O)C(=O)NCCCO [Dexpanthenol, dexpanthenol] | 4.9 | 4.82 |  |  |  | enhancement of the preservative | >5.12 | improved preservative efficacy | enhancement of the preservative |
| Cc1ncc(CO)c(CO)c1O.Cl [Pyridoxine HCl] |  | 4.34 |  | improvement in the activity | 2.0 | enhancement of the preservative | >5.12 |  | enhancement of the preservative |

From patent publication US10595532B2, “Ophthalmic contact lens solutions containing forms of vitamin B” (FXS Ventures, LLC, priority 2000, dated 2020)
